Experimental findings from patent US20160159861A1, “APJ Receptor Compounds” (priority 2013, published 2016) are described below.

The target of data set [1] is T1, human APJ receptor (hAPJ) (Homo sapiens, UniProt P35414).
T1 construct: expressed in transfected cells
T1 sequence (P35414 1-380): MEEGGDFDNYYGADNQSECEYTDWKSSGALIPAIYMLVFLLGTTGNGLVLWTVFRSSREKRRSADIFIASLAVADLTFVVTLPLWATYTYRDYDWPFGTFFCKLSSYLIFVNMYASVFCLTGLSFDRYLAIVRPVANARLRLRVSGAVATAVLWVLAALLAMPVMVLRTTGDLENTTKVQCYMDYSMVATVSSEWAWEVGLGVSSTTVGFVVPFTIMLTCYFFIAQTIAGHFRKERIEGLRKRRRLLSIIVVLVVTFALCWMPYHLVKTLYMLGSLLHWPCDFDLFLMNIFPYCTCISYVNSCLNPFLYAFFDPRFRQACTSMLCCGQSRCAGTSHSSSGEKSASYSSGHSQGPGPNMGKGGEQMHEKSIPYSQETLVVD
The experiment in a line: HTRF cAMP assay: inhibition of NKH477-stimulated cAMP in HEK cells stably expressing hAPJ. Type of data set: cell-based. As to conditions: for % IA (cAMP inhibition, hAPJ HEK): intrinsic activity; for Ranking: composite class of EC50 (hAPJ), % IA and % histamine or formal (+) charge; for Emax: HEK293, read-out: % IA, bound stated; for inhibition of NKH477-stimulated increase in cAMP, dose dependent: concentration response curves, FIGS. 1 and 2, HEK cells stably expressing APJ. In short, it runs like this: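 HEK cells stably expressing hAPJ, induced with 1 nG/mL doxycycline and seeded overnight at 40 k/well. cAMP read by HTRF competitive immunoassay using cryptate-labeled anti-cAMP antibody and d2-labeled cAMP.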

The subject of data set [2] is rat peritoneal cells. The experiment in a line: Ex vivo histamine release assay in rat peritoneal cells (vs. Compound 48/80). Type of data set: cell-based. From the text:
More desirable pharmacological tolerability can include a decrease in an undesirable side effect (e.g., histamine release, an indicator of mast cell degranulation) without a significant loss in activity of the compound.
Screening of the variant G protein receptor compounds against a control compound for histamine release can be done following standard assays. The standard assay can include comparison to a control compound known to elicit a histamine response (e.g., 48/80 having CAS No. 94724-12-6). Such an assay using rat peritoneal cells is described herein for the APJ compounds.
Test compounds were assayed in the ex vivo histamine release assay using a 3-point dose response. Concentrations of total histamine contained in the cells is used to correct for variability in the numbers of mast cells in the lavage per well.
Resident peritoneal cells were harvested from naïve Sprague Dawley rats (male 200-300 gr, Charles River). Rats were euthanized by CO2 asphyxiation and a skin incision was made along the middle-line of the abdomen. Thirty milliliters of HBSS (HyClone, cat#SH 30268.01) containing 20 mM HEPES and 0.2% BSA (heretofore Assay Buffer) were injected intraperitoneally using a 30 mL syringe with the attached 18 gauge needle. The abdomen was gently lavaged for 1-2 min and 7-10 milliliters of the peritoneal lavage were carefully aspirated. Cell count in the peritoneal lavage was determined using Cellometer Auto T4 (Nexcelom Bioscience). The peritoneal cell count was adjusted to […] cells/mL in Assay Buffer. Rat peritoneal cells were kept at room temperature before and during the assay.
For the 10-point assay, 3-fold serial dilutions were prepared for each test compound in 100% DMSO in 96-well plates (Greiner Bio One, Ref#651261)—from 100 μM down to […]. For the 3-point assay, 10-fold serial dilutions were prepared in 100% DMSO at 100 μM, 10 μM and 1 μM concentrations. From this plate, 5 μL of compound were transferred to a new plate containing 45 μL Assay Buffer to generate a compound plate with 10× final concentrations in 10% DMSO with Assay Buffer. In the final plates, column 11 contained 1% DMSO for the low-histamine-releasing control.
Suspensions of the rat peritoneal cells (90 μL of 2.75×10^5 cells/mL; →25,000 cells per well) were introduced into each well of a new 96-well microtiter plate (Greiner Bio One, Ref#651261) and 10 μL aliquots of the serially diluted compounds were transferred to the cells in each well. The microtiter plate was incubated for 30 min at room temperature. Following incubation cells were spun down (500 rpm, 7 min) and supernatants were collected for further analysis. Supernatants were diluted 6 times with the assay buffer (15 μL to 75 μL, for 90 μL total) and released histamine content was determined using HTRF® Histamine assay kit (CisBio, cat#62HTMPEB). To measure the total histamine in each well, cells were lysed by addition of 15 μL 5% TritonX-100 to each well followed by incubation for 15 minutes. The plates were then spun at 3000 rpm for 5 minutes, and 10 μL of supernatant were diluted 9-fold in assay buffer (10 μL to 80 μL for 90 μL total) to make the “total” histamine plate. Histamine content was measured as described above for the “released” histamine values.
The standard positive control was Compound 48/80 (Enzo Life Sciences), a oligomeric polymer mixture produced by the condensation of N-methyl-p-methoxyphenethylamine with formaldehyde. The trimer is the most abundant in the mixture Compound 48/80 is used to promote mast cell degranulation and activates G proteins by a mechanism analogous to that of mastoparan. […] See references: T. Higashijima et al., J. Biol., Chem., 265 14176 (1990); M. Mousli et al., FEBS Lett., 259 260 (1990); K. Gietzen et al., Biochim. Biophys. Acta, 736 109 (1983); K. Gietzen, Biochem. J., 1983 216 611 and C. Bronner et al., Biochim. Biophys. Acta, 920 301(1987).

Setting [3] is: EC50 (cAMP inhibition, hAPJ HEK), Table 6, hAPJ HEK cells, NKH477-stimulated cAMP.
[4] abbreviates: histamine release from rat peritoneal cells relative to Compound 48/80.
Where [5] appears, read: HTRF cAMP Assay, per data of Table 6.
[6] abbreviates: HTRF cAMP Assay, per data of Table 6, read-out: EC50 (hAPJ), inhibition of cAMP production, bound stated.
The mark [7] stands for this setting: Table 6, hAPJ HEK cells, NKH477-stimulated cAMP, read-out: EC50 (cAMP inhibition, hAPJ HEK).

Like-named read-outs stand apart in the source and are kept apart here. Peptide text beside a SMILES is read from it.

In data set [1] (setting [3]), `CCCCCCCCCCCCCCCC(=O)N[C@H](C(=O)N1CCC[C@H]1C(=O)N[C@H](C(=O)N[C@@H](Cc1ccccc1)C(=O)N[C@@H](CCCNC(=N)N)C(=O)N[C@@H](CO)C(=O)N[C@@H](CO)C(=O)N1CCC[C@H]1C(=O)N[C@@H](CCC(=O)O)C(=O)N[C@H](CCCCN)C(=O)N[C@@H](CCCNC(=N)N)C(=O)N[C@@H](CCCNC(=N)N)C(=O)N[C@@H](CO)C(=O)N[C@@H](C)C(=O)N[C@@H](CC(=O)O)C(=O)N[C@H](C(=O)N[C@@H](Cc1ccccc1)C(=O)N[C@H](C(N)=O)[C@@H](C)CC)[C@@H](C)CC)C(C)C)[C@@H](C)O` [Compound 2] (HELM PEPTIDE1{[CCCCCCCCCCCCCCCC(=O)[*:2]].T.P.V.F.R.S.S.P.E.[dK].R.R.S.A.D.I.F.I.[am]}$$$$V2.0) came in with a half-maximal effective concentration (EC50) of 4 nM. In addition, the “% IA (cAMP inhibition, hAPJ HEK)” value in data set [1] (Table 6, hAPJ HEK cells) is 60%. Moreover, the Ranking entry in data set [1] is “** (EC50 25-50 nM (hAPJ), % IA 50-79% and either % histamine>35% or formal (+) charge>1)”. The “Histamine (% vs. 48/80)” value in data set [2] (setting [4]) is 49%.

`CCCCCCCCCCCCCCCC(=O)N[C@@H](CC(=O)O)C(=O)N[C@H](C(=O)N[C@@H](Cc1ccccc1)C(=O)N[C@@H](CCC(N)=O)C(=O)N[C@@H](CO)C(=O)N[C@@H](CCC(=O)O)C(=O)N[C@H](CCCCN)C(=O)N[C@@H](CCCNC(=N)N)C(=O)N[C@@H](CCCNC(=N)N)C(=O)N[C@@H](CO)C(=O)N[C@@H](C)C(=O)N[C@@H](CC(=O)O)C(=O)N[C@@H](CCC(N)=O)C(=O)N[C@@H](Cc1ccccc1)C(=O)N[C@H](C(N)=O)[C@@H](C)CC)C(C)C` [Compound 17] (HELM PEPTIDE1{[CCCCCCCCCCCCCCCC(=O)[*:2]].D.V.F.Q.S.E.[dK].R.R.S.A.D.Q.F.I.[am]}$$$$V2.0): in data set [1] (setting [5]), the Emax is at least 80%. The EC50 in data set [1] (setting [6]) is at most 25 nM. Besides, the half-maximal effective concentration (EC50) in data set [1] (setting [7]) is 24 nM. In addition, in data set [1] (Table 6, hAPJ HEK cells), the “% IA (cAMP inhibition, hAPJ HEK)” value came to 111%. In addition, in data set [1], the Ranking result was “***** (EC50≦25 nM (hAPJ), % IA≧80% and either % histamine≦35% or formal (+) charge≦1)”; the “inhibition of NKH477-stimulated increase in cAMP, dose dependent” value (shortened to “inhibition of NKH477-stimulated increase”) is “inhibited”. For the same compound, the “Histamine (% vs. 48/80)” value in data set [2] came to 1%.

On to `CCCCCCCCCCCCCCCC(=O)N[C@H](C(=O)N[C@H](C(=O)N[C@@H](Cc1ccccc1)C(=O)N[C@@H](CCCNC(=N)N)C(=O)N[C@@H](CO)C(=O)N[C@@H](CO)C(=O)N[C@@H](CCC(=O)O)C(=O)N[C@H](CCCCN)C(=O)N[C@@H](CCCNC(=N)N)C(=O)N[C@@H](CCCNC(=N)N)C(=O)N1CCC[C@H]1C(=O)N[C@@H](CO)C(=O)N[C@@H](C)C(=O)N[C@@H](CC(=O)O)C(=O)N[C@H](C(=O)N[C@@H](Cc1ccccc1)C(=O)N1CCC[C@H]1C(N)=O)[C@@H](C)CC)C(C)C)[C@@H](C)O` [Compound 24] (HELM PEPTIDE1{[CCCCCCCCCCCCCCCC(=O)[*:2]].T.V.F.R.S.S.E.[dK].R.R.P.S.A.D.I.F.P.[am]}$$$$V2.0), for which the Emax in data set [1] (setting [5]) was at least 80%. Also, in data set [1] (setting [6]), the concentration giving a half-maximal response (EC50) was at most 25 nM. Also, the half-maximal effective concentration (EC50) in data set [1] (setting [7]) is 13 nM. The “% IA (cAMP inhibition, hAPJ HEK)” value in data set [1] (Table 6, hAPJ HEK cells) was determined as 88%. Further, in data set [1], the Ranking result was “**** (EC50≦25 nM (hAPJ), % IA≧80% and either % histamine>35% or formal (+) charge>1)”; the “inhibition of NKH477-stimulated increase” value was “inhibited”. For the same compound, in data set [2], the “Histamine (% vs. 48/80)” value came to 54%.

Take `CCCCCCCCCCCCCCCC(=O)N[C@H](C(=O)N[C@H](C(=O)N[C@@H](Cc1ccccc1)C(=O)N[C@@H](CCCNC(=N)N)C(=O)N[C@@H](CO)C(=O)N[C@@H](CO)C(=O)N[C@@H](CCC(=O)O)C(=O)N[C@H](CCCN)C(=O)N[C@@H](CCCNC(=N)N)C(=O)N[C@@H](CCCNC(=N)N)C(=O)N[C@@H](CO)C(=O)N[C@@H](C)C(=O)N[C@@H](CC(=O)O)C(=O)N[C@H](C(=O)N[C@@H](Cc1ccccc1)C(=O)N[C@H](C(N)=O)[C@@H](C)CC)[C@@H](C)CC)C(C)C)[C@@H](C)O` [Compound 8] (HELM PEPTIDE1{[CCCCCCCCCCCCCCCC(=O)[*:2]].T.V.F.R.S.S.E.[NCCC[C@@H](N[*:1])C(=O)[*:2]].R.R.S.A.D.I.F.I.[am]}$$$$V2.0): it took 14 nM to reach a half-maximal effect in data set [1] (setting [3]) (EC50). In data set [1] (EC50 (hAPJ), inhibition of cAMP production, bound stated, HTRF cAMP Assay, per data of Table 6), this compound came in with a half-maximal effective concentration (EC50) of at most 25 nM. Also, the Emax in data set [1] (setting [5]) is at least 80%. Moreover, in data set [1] (Table 6, hAPJ HEK cells), the “% IA (cAMP inhibition, hAPJ HEK)” value came to 99%. Further, in data set [1], the Ranking result was “***** (EC50≦25 nM (hAPJ), % IA≧80% and either % histamine≦35% or formal (+) charge≦1)”; the “inhibition of NKH477-stimulated increase” value is on record as “inhibited”. Besides, in data set [2] (setting [4]), the “Histamine (% vs. 48/80)” value came to 9%.

Regarding `CCCCCCCCCCCCCCCC(=O)N[C@H](C(=O)N[C@H](C(=O)N[C@@H](Cc1ccccc1)C(=O)N[C@@H](CCC(N)=O)C(=O)N[C@@H](CO)C(=O)N[C@@H](CO)C(=O)N[C@@H](CCC(=O)O)C(=O)N[C@H](CCCCN)C(=O)N[C@@H](CCCNC(=N)N)C(=O)N[C@@H](CCCNC(=N)N)C(=O)N[C@@H](CO)C(=O)N[C@@H](C)C(=O)N[C@@H](CC(=O)O)C(=O)N[C@@H](Cc1ccccc1)C(=O)N[C@H](C(N)=O)[C@@H](C)CC)C(C)C)[C@@H](C)O` [Compound 15, Pal-TVFQSSEkRRSADFI-amide] (HELM PEPTIDE1{[CCCCCCCCCCCCCCCC(=O)[*:2]].T.V.F.Q.S.S.E.[dK].R.R.S.A.D.F.I.[am]}$$$$V2.0), in data set [1] (setting [5]), the Emax is at least 80%. Besides, the half-maximal effective concentration (EC50) in data set [1] (setting [6]) is at most 25 nM. Besides, the concentration for a half-maximal effect (EC50) in data set [1] (setting [7]) was 12 nM. Further, the “% IA (cAMP inhibition, hAPJ HEK)” value in data set [1] (Table 6, hAPJ HEK cells) is 108%. Moreover, in data set [1], the Ranking entry was “***** (EC50≦25 nM (hAPJ), % IA≧80% and either % histamine≦35% or formal (+) charge≦1)”; the “inhibition of NKH477-stimulated increase” value was “inhibited”. Besides, in data set [2], the “Histamine (% vs. 48/80)” value was 30%.
